“Also recorded” adds a separate entry of the source. Read-outs that look alike come from different tables or passages of the source.
What was measured:
[1] = test system: Neuro-2a cells; assay: Immunoprecipitation/immunoblot of HDAC6, acetyl-lysine, ubiquitin in transfected Neuro-2a cells; type: cell-based, mouse; details: Neuro-2a transfected, 24 h
Method: Fig. 4 MPT0G211 increased the ubiquitination of p-tau and degradation by proteasome. a, b SH-SY5Y and Neuro-2a cells were transfected for 24 h with pCAX APP 695 and pRK5-EGFP-Tau P301L and incubated with MPT0G211 or ACY-1215 (0.1 μM) for another 24 h, after which the cell lysates were immunoprecipitated with antibodies against HDAC6, acetyl-lysine (a) or ubiquitin (b) and were subjected to immunoblotting. c Cells were transfected with pCAX APP 695 and pRK5-EGFP-Tau P301L for 24 h and were then incubated with MPT0G211 (0.01–1 μM) for another 24 h. Immunoblots reveal polyubiquitin complexes. d pCAX APP 695 or pRK5-EGFP-Tau P301L were used to transfect the cells for 24 h, incubated with or without MG132 (1 μM) for 30 min, and were then treated with MPT0G211 or ACY-1215 (0.1 μM) for another 24 h. Cell lysates were prepared for western blot analysis of the indicated proteins
(§1) Cells (1 × 10^6) were incubated for 10 min at 4 °C in lysis buffer (20 mM HEPES, pH 7.4, 2 mM EGTA, 50 mM β-glycerophosphate, 0.1% Triton X-100, 10% glycerol, 1 mM dithiothreitol, 1 μg/mL leupeptin, 5 μg/mL aprotinin, 1 mM phenylmethylsulfonyl fluoride, and 1 mM sodium orthovanadate), scraped from the plate, incubated on ice for 10 min, and centrifuged at 17,000 × g for 30 min at 4 °C. Protein samples (30 μg) were electrophoresed through sodium dodecyl sulfate-polyacrylamide gels (SDS-PAGE) and transferred onto a nitrocellulose membrane, which was then blocked by incubation for 30 min at room temperature with 5% fat-free milk in PBS. Immunoblotting was performed by overnight incubation at 4 °C with primary antibodies in PBS, followed by incubation for 1 h at room temperature with HRP-conjugated secondary antibodies. Bound antibodies were measured using ECL reagent (T-Pro Biotechnology, New Taipei City, Taiwan), and the membrane was placed on a photographic film. Cell lysates (30 μg) were incubated with antibodies (1 μg each) and protein A/G agarose beads overnight at 4 °C. The precipitated beads were washed three times with 1 mL of ice-cold cell lysis buffer, and bound immune complexes were separated using 8% SDS-PAGE, followed by immunoblotting using the indicated primary antibody.

[2] = test system: Neuro-2a cells; assay: MTT cell viability, Neuro-2a; type: cell-based, mouse; details: 24 h, 0.01–1 μM
Method: Cell viabilities were determined by MTT assay. The results represent the mean ± SEM of three independent experiments; *p < 0.05, **p < 0.01 and ***p < 0.001 compared with controls TEXT PRINTED IN THE PICTURE: (A) no label printed: M.W. 293.32

[3] = test system: SH-SY5Y cells; assay: Western blot of tau phosphorylation and kinases in SH-SY5Y cells transfected with pCAX APP 695 and pRK5-EGFP-Tau P301L; type: cell-based, human; details: 0.1 μM, 24 h
Method: (§2) Images represented magnification at ×100. b Cells were transfected with pCAX APP 695 for 24 h, harvested, and cell lysates were subjected to Western blotting. c, d SH-SY5Y and Neuro-2a cells were transfected with pCAX APP 695 and/or pRK5-EGFP-Tau P301L for 24 h. Cell lysates were prepared for western blot analysis of the indicated proteins. e, f Cells were transfected with pCAX APP 695 and pRK5-EGFP-Tau P301L for 24 h and were then incubated with or without MPT0G211 or ACY-1215 (0.1 μM) for another 24 h. Cell lysates were subjected to western blot analysis using the indicated antibodies. Results are presented as the mean ± SEM from three independent experiments. **p < 0.01, ***p < 0.001 compared with the control group; ^#p < 0.05, ^##p < 0.01 compared with the indicated groups
(§3) Cell lysates were prepared for western blot analysis of the indicated proteins. Results are presented as the mean ± SEM. *p < 0.05, **p < 0.01, and ***p < 0.001 compared with the control group; ^#p < 0.05, ^##p < 0.01, ^###p < 0.001 compared with the indicated groups
(§4) Cells were seeded 1 day before transfection. The plasmids pCAX FLAG APP and pRK5-EGFP-Tau P301L (1 μg each) and 1 μL of TurboFect transfection reagent were mixed for 20 min at room temperature, added to the cells, and the suspensions were incubated for 24 h at 37 °C in a humidified atmosphere containing 5% CO2.
as §1

[4] = test system: Neuro-2a cells; assay: Western blot of tau phosphorylation and kinases in Neuro-2a cells transfected with pCAX APP 695 and pRK5-EGFP-Tau P301L; type: cell-based, mouse; details: 0.1 μM, 24 h
Method: as §2, §3, §4, §1

[5] = BBB crossing assay: brain and plasma concentrations by LC-MS/MS after oral administration; type: in vivo, rat; details: rats
Method: Successful crossing of the BBB by therapeutic drugs is essential in the treatment of CNS disorders. To explore whether MPT0G211 can penetrate into the brain, single oral administration of MPT0G211 was performed, and plasma and brain samples were collected and analyzed by liquid chromatography tandem mass spectrometry (LC-MS/MS) to obtain brain/plasma ratios.
This assay was performed by Eurofins Scientific. Briefly, SD rats weighing 200–300 g were provided by BioLasco Taiwan (under the license of Charles River Laboratories). Rats were sedated under general inhalant anesthesia (3% isoflurane) for blood collection using cardiac puncture 60 and 180 min after oral administration of the test compound. Aliquots of blood were gently mixed with lithium heparin, kept on ice, and centrifuged at 2500 × g for 15 min at 4 °C. The plasma was then harvested and stored at −70 °C. After blood sampling, rats were decapitated, and the entire brain was quickly removed and rinsed with cold saline (0.9% NaCl, w/v). The surface vasculature was ruptured, blotted with dry gauze, weighed, and stored on ice within 1 h of collection. Each brain was homogenized in 3 mL cold PBS, pH 7.4, for 10 s on ice, and centrifuged at 5400 × g for 15 min at 4 °C. Supernatants were precipitated using acetonitrile precipitation and subjected to high-performance LC-MS/MS.

[6] = test system: HDAC6; set-up: method as in PMID 29304284; details: cited from earlier work

O=C(NO)c1ccc(CNc2cccc3cccnc23)cc1 [MPT0G211, N-hydroxy-4-((quinolin-8-ylamino)methyl)benzamide]
coimmunoprecipitation of ubiquitin with p-tau (Ser396) ([1]; 0.1 μM): clearly increased | HDAC6/Hsp90 binding ([1]; 0.1 μM, IP): downregulation | acetylation of Hsp90 ([1]; 0.1 μM, IP): clearly enhanced | level of polyubiquitinated proteins ([1]; 0.01–1 μM): significantly accumulated | cytotoxicity (MTT cell viability) [2]: did not result in any significant cytotoxicity | phosphorylation of tau Ser396 ([3]; SH-SY5Y transfected hAPP 695 + hTau P301L): significantly inhibited; also recorded: significantly attenuated | CDK5, p25, or p35 expression ([3]; SH-SY5Y transfected): no marked changes | phospho-GSK3β on Ser9 ([3]; SH-SY5Y transfected): significant phospho-GSK3β increases | phospho-GSK3β on Ser216 ([3]; SH-SY5Y transfected): a decrease | phosphorylation of tau Ser404 ([3]; SH-SY5Y transfected): significantly attenuated | phosphorylation of tau Ser396 ([4]; Neuro-2a transfected hAPP 695 + hTau P301L): significantly inhibited; also recorded: significantly attenuated | CDK5, p25, or p35 expression ([4]; Neuro-2a transfected): no marked changes | phospho-GSK3β on Ser9 ([4]; Neuro-2a transfected): significant phospho-GSK3β increases | phospho-GSK3β on Ser216 ([4]; Neuro-2a transfected): a decrease | phosphorylation of tau Ser404 ([4]; Neuro-2a transfected): significantly attenuated | Kp at 3 h ([5]; SD, rat, brain/plasma, PO 50 mg/kg, 3 h, read-out: Brain/plasma ratio): 0.9 | concentration at 1 h ([5]; SD, rat, brain, PO 50 mg/kg, 1 h, read-out: Brain concentration): 56.9 ± 3.4 ng/g | concentration at 3 h ([5]; SD, rat, brain, PO 50 mg/kg, 3 h, read-out: Brain concentration): 11 ± 0.1 ng/g | Kp at 1 h ([5]; SD, rat, in vivo, PO 50 mg/kg, 1 h, read-out: Brain/plasma ratio): 1.01 | concentration at 1 h ([5]; SD, rat, plasma, PO 50 mg/kg, 1 h, read-out: Plasma concentration): 56.4 ± 4 ng/g | concentration at 3 h ([5]; SD, rat, plasma, PO 50 mg/kg, 3 h, read-out: Plasma concentration): 12.2 ± 1.4 ng/g | BBB penetration ([5]; single oral administration): can penetrate the BBB | time for which concentrations were detected in the brain ([5]; single oral administration): at least 3 h | selectivity for HDAC6 compared with the other HDAC isoforms [6]: 1000 fold | IC50 ([6]; read-out: HDAC6 inhibition IC50): 0.291 nM

Source: article PMC5974403, “The novel histone de acetylase 6 inhibitor, MPT0G211, ameliorates tau phosphorylation and cognitive deficits in an Alzheimer’s disease model” (Cell Death & Disease, 2018)
